Results as given in PMC9143880, “Improving Antimicrobial Activity and Physico-Chemical Properties by Isosteric Replacement of 2-Aminothiazole with 2-Aminooxazole” (Pharmaceuticals, 2022).
≈ marks a conversion by molar mass, not a printed value. Like-named read-outs stand apart in the source and are kept apart here.

Columns and labels:
[1] = tested on: Mtb H37Rv CNCTC My 331/88 (ATCC 27294); test: microbe, parasite or virus in culture; format: cell-based; settings: Mycobacterium tuberculosis, read-out: MIC Mtb H37Rv
[2] = tested on: Mtb IZAK (MDR clinical isolate); test: microbe, parasite or virus in culture; format: cell-based; settings: Mycobacterium tuberculosis, read-out: MIC Mtb IZAK
[3] = tested on: Mtb MATI (MDR clinical isolate); test: microbe, parasite or virus in culture; format: cell-based; settings: Mycobacterium tuberculosis, read-out: MIC Mtb MATI
Mtb laboratory ID IZAK = format: cell-based, Mycobacterium tuberculosis; settings: MDR strain IZAK, CLSI breakpoints 2020
Mtb laboratory ID MATI = format: cell-based, Mycobacterium tuberculosis; settings: MDR strain MATI, CLSI breakpoints 2021
[4] = RP-UHPLC lipophilicity parameter log k’w; format: physicochemical; settings: for log k’w: RP-UHPLC, acetonitrile/water, log k extrapolated to 0% acetonitrile; for logkw: experimental lipophilicity parameter
How it was run: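 log k’w from isocratic RP-UHPLC with an acetonitrile/water mobile phase, using 40, 45 and 50% acetonitrile for subtype I and 20, 30 and 40% for subtype II. A single run was made at each mobile-phase composition.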

HepG2 cells = test: HepG2 cytotoxicity screening (CellTiter 96); format: cell-based, human; settings: for IC50: Homo sapiens, HepG2, 24 h, 24 h incubation, CellTiter 96, * above highest tested concentration, ** limited by insolubility in medium; for SI: SI = IC50 (µM) HepG2 / MICH37Ra (µM)
[5] = tested on: Mycobacterium tuberculosis H37Ra ITM-M006710 (ATCC 9431); test: Antimycobacterial MIC, microdilution broth / Alamar Blue (resazurin); format: cell-based; settings: Mycobacterium tuberculosis
[6] = tested on: M. smegmatis DSM 43465 (ATCC 607); test: Antimycobacterial MIC, microdilution broth / resazurin; format: cell-based; settings: Mycolicibacterium smegmatis, read-out: MIC M. smegmatis
[7] = tested on: M. aurum DSM 43999 (ATCC 23366); test: as above; format: cell-based; settings: Mycolicibacterium aurum, read-out: MIC M. aurum
[8] = tested on: M. avium DSM 44156 (ATCC 25291); test: as above; format: cell-based, Mycobacterium avium; settings: Mycobacterium avium, read-out: MIC M. avium
[9] = tested on: M. kansasii DSM 44162 (ATCC 12478); test: as above; format: cell-based; settings: Mycobacterium kansasii, read-out: MIC M. kansasii
[10] = Kinetic water solubility (water-induced precipitation of DMSO stock, UHPLC); format: physicochemical; settings: 18 °C, water
Source text: A low value of log P is often presumed to be related to increased water solubility, although this might not always be the case since log P is a measure of relative solubility of the compound in the lipophilic and hydrophilic solvents (at equilibrium). Therefore, to be sure, we tested whether the lowered log k’w (related to log P) of the oxazole derivatives would also translate to increased solubility in water in a few representative derivatives. The water solubility of selected compounds was assessed by the kinetic method based on water-induced precipitation of DMSO stock solutions of tested compounds due to reasons described by Azzali and colleagues.
Water solubility was investigated using the kinetic solubility method. The sample (1 mg) was dissolved in the smallest amount of DMSO needed, 25 or 50 μL for subtype I and subtype II compounds, respectively. The samples were mixed at 18 °C in a thermomixer (Thermomixer comfort, Eppendorf, Hamburg, Germany) for 1 h. After mixing, the samples were diluted with water to a concentration of 500 μM, and the precipitate was observed. The sample was filtered through a 0.22 μm filter and diluted to be evaluated by UHPLC. The log S parameter was calculated from the experimental solubility in molar concentration. The samples were measured using the same instrument, software, and column as used in the purity evaluation.

[11] = tested on: Staphylococcus aureus subsp. aureus CCM 4223 (ATCC 29213); test: Antibacterial microdilution broth (EUCAST); format: cell-based; settings: Staphylococcus aureus; 24h incubation; read-out: MIC SA
[12] = tested on: Staphylococcus aureus subsp. aureus (MRSA) CCM 4750 (ATCC 43300); test: Antibacterial microdilution broth (EUCAST); format: cell-based; settings: Staphylococcus aureus; 24h incubation; read-out: MIC MRSA
[13] = tested on: Staphylococcus epidermidis CCM 4418 (ATCC 12228); test: Antibacterial microdilution broth (EUCAST); format: cell-based; settings: Staphylococcus epidermidis; 24h incubation; read-out: MIC SE
[14] = tested on: Enterococcus faecalis CCM 4224 (ATCC 29212); test: Antibacterial microdilution broth (EUCAST); format: cell-based; settings: Enterococcus faecalis; 24h incubation; read-out: MIC EF
[15] = tested on: Escherichia coli CCM 3954 (ATCC 25922); test: Antibacterial microdilution broth (EUCAST); format: cell-based; settings: Escherichia coli; 24h incubation; read-out: MIC EC
[16] = tested on: Acinetobacter baumannii DSM 30007 (ATCC 19606); test: Antibacterial microdilution broth (EUCAST); format: cell-based; settings: Acinetobacter baumannii; 24h incubation; read-out: MIC AB
[17] = tested on: Pseudomonas aeruginosa CCM 3955 (ATCC 27853); test: Antibacterial microdilution broth (EUCAST); format: cell-based; settings: Pseudomonas aeruginosa; 72h incubation; read-out: MIC PA
[18] = tested on: Candida albicans CCM 8320 (ATCC 24433); test: Antifungal microdilution broth (EUCAST); settings: Candida albicans, 24 h, read-out: MIC CA
[19] = tested on: Candida krusei CCM 8271 (ATCC 6258); test: Antifungal microdilution broth (EUCAST); settings: Pichia kudriavzevii, 24 h, read-out: MIC CK
[20] = tested on: Candida parapsilosis CCM 8260 (ATCC 22019); test: Antifungal microdilution broth (EUCAST); settings: Lodderomyces parapsilosis, 24 h, read-out: MIC CP
[21] = tested on: Candida tropicalis CCM 8264 (ATCC 750); test: Antifungal microdilution broth (EUCAST); settings: Candida tropicalis, 24 h, read-out: MIC CT
[22] = tested on: Aspergillus fumigatus ATCC 204305; test: Antifungal microdilution broth (EUCAST); settings: Aspergillus fumigatus, ATCC204305, 24 h, read-out: MIC AF
[23] = tested on: Aspergillus flavus CCM 8363; test: Antifungal microdilution broth (EUCAST); settings: Aspergillus flavus, CCM8363, 24 h, read-out: MIC AFla
[24] = tested on: Lichtheimia corymbifera CCM 8077; test: Antifungal microdilution broth (EUCAST); settings: Lichtheimia corymbifera, CCM8077, 24 h, read-out: MIC LC
[25] = tested on: Trichophyton interdigitale CCM 8377 (ATCC 9533); test: Antifungal microdilution broth (EUCAST); settings: Trichophyton interdigitale, 72 h, read-out: MIC TI
M. tuberculosis H37Rv = settings: whole cell; cited from earlier work
[26] = 120 h, Middlebrook 7H9, resazurin after 120 h, read-out: Mtb H37Ra MIC
[27] = recalculated from µg/mL, read-out: MICH37Ra

In the case of CC[C@@H](CO)NCCN[C@@H](CC)CO [EMB, ethambutol], the MIC [1] is reported as 0.39 µg/mL (≈ 1.91 µM), the MIC [2] is reported as 1.56 µg/mL (≈ 7.64 µM) and the MIC [3] is reported as 1.56 µg/mL (≈ 7.64 µM). The “Concentration (susceptibility profile)” value (Mtb laboratory ID IZAK) was 0.5 µg/mL, the Susceptibility (Mtb laboratory ID IZAK) was “sensitive” and the “Concentration (susceptibility profile)” value (Mtb laboratory ID MATI) was 0.5 µg/mL. The Susceptibility (Mtb laboratory ID MATI) was “sensitive”.
With O=C(Nc1ncco1)c1ccnc(Cl)c1 [Compound 6b] the “log k’w” value [4] was 1.136, the logkw [4] was 1.136 and the IC50 (HepG2 cells) was 664 µM. For the same compound, the SI (HepG2 cells) was 47.5, the MIC [5, 26] was 3.12 µg/mL and the MIC [5, 27] was 14 µM. It also gave an MIC ([6]; 48 h) of 6.25 µg/mL (≈ 27.9 µM), an MIC ([7]; 72 h) of 3.12 µg/mL (≈ 14 µM) and an MIC ([8]; 96 h) of 3.12 µg/mL (≈ 14 µM). For the same compound, the MIC ([9]; 96 h) was 3.12 µg/mL (≈ 14 µM), the MIC [1] was 6.25 µg/mL (≈ 27.9 µM) and the MIC [2] was 3.13 µg/mL (≈ 14 µM). For the same compound, the MIC [3] was 3.13 µg/mL (≈ 14 µM), the solubility ([10]; water (DMSO stock diluted with water), kinetic from dmso stock, read-out: solubility in water) was over 500 µM and the solubility ([10]; kinetic method, DMSO stock diluted to 500 μM) was “no precipitate”. For the same compound, the MIC [11] was 250 µM (≈ 55.9 µg/mL), the MIC [12] was 62.5 µM (≈ 14 µg/mL) and the MIC [13] was 62.5 µM (≈ 14 µg/mL). For the same compound, the MIC [14] was 500 µM (≈ 112 µg/mL), the MIC [15] was 62.5 µM (≈ 14 µg/mL) and the MIC [16] was 62.5 µM (≈ 14 µg/mL). For the same compound, the MIC [17] was over 500 µM, the melting point was 158 to 162 °C and the MIC [18] was 31.2 µM (≈ 6.99 µg/mL). For the same compound, the MIC [19] was 250 µM (≈ 55.9 µg/mL), the MIC [20] was 250 µM (≈ 55.9 µg/mL) and the MIC [21] was 500 µM (≈ 112 µg/mL). For the same compound, the MIC [22] was 125 µM (≈ 28 µg/mL), the MIC [23] was 500 µM (≈ 112 µg/mL) and the MIC [24] was 62.5 µM (≈ 14 µg/mL). It also gave an MIC [25] of 125 µM (≈ 28 µg/mL).
In the case of O=C(Nc1nc(-c2ccccn2)cs1)c1ccncc1 [B], the MIC (M. tuberculosis H37Rv) is given as 1.6 to 3.1 µM.
For Cc1cc(C(=O)Nc2ncco2)cc(Cl)n1 [Compound 7b], the “log k’w” value [4] was 1.430, the logkw [4] was 1.43 and the IC50 (HepG2 cells) was 959 µM. The SI (HepG2 cells) was over 58.3, the MIC [5, 26] was under 3.91 µg/mL and the MIC [5, 27] was under 16.5 µM. The MIC ([6]; resazurin after 48 h) was 7.81 µg/mL (≈ 32.9 µM), the MIC ([7]; resazurin after 72 h) was 3.91 µg/mL (≈ 16.5 µM) and the MIC ([8]; resazurin after 96 h) was 3.91 µg/mL (≈ 16.5 µM). The MIC ([9]; resazurin after 96 h) was 7.81 µg/mL (≈ 32.9 µM), the MIC [1] was 6.25 µg/mL (≈ 26.3 µM) and the MIC [2] was 3.13 µg/mL (≈ 13.2 µM). The MIC [3] was 3.13 µg/mL (≈ 13.2 µM), the MIC [11] was 62.5 µM (≈ 14.9 µg/mL) and the MIC [12] was 125 µM (≈ 29.7 µg/mL). For the same compound, the MIC [13] was 125 µM (≈ 29.7 µg/mL), the MIC [14] was 500 µM (≈ 119 µg/mL) and the MIC [15] was 250 µM (≈ 59.4 µg/mL). It also gave an MIC [16] of 500 µM (≈ 119 µg/mL), an MIC [17] of over 500 µM and a melting point of 149 to 153 °C. The MIC [18] was 125 µM (≈ 29.7 µg/mL), the MIC [19] was 500 µM (≈ 119 µg/mL) and the MIC [20] was 500 µM (≈ 119 µg/mL). It also gave an MIC [21] of over 500 µM, an MIC [22] of 250 µM (≈ 59.4 µg/mL) and an MIC [23] of over 500 µM. For the same compound, the MIC [24] was 125 µM (≈ 29.7 µg/mL) and the MIC [25] was 125 µM (≈ 29.7 µg/mL).
